In paper PMC10648159, “Novel MAGL Inhibitors Alleviate LPS-Induced Acute Kidney Injury by Inhibiting NLRP3 Inflammatory Vesicles, Modulating Intestinal Flora, Repairing the Intestinal Barrier, and Interfering with Serum Metabolism” (Molecules, 2023):

Biological target: T1, monoacylglycerol lipase (MAGL) (Homo sapiens, UniProt Q99685)
T1 construct: gene MGLL
T1 sequence (Q99685 1-303): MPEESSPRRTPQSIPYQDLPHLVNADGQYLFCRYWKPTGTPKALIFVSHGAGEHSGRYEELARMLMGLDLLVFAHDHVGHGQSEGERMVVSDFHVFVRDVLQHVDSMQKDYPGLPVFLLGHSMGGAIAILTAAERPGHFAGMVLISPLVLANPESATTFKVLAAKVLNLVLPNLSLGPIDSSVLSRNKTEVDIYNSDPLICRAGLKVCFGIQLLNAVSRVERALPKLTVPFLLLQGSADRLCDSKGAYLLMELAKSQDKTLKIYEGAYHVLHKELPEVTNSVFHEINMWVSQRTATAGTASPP
Assay: Cayman Monoacylglycerol Lipase Inhibitor Screening Assay Kit, absorbance at […] nm, […] min preincubation; maximum inhibition about […]
Assay type: biochemical

IC50: 663 nM
Compound: CN1c2ccccc2CC1C(=O)N1CCC(C(=O)Nc2cccc(Cl)c2)CC1 (stereo not shown) [M-18C, MAGLZ-18(c)]
